# Results taken from patent US9133183B2, “Imidazolidinones and analogs exhibiting anti-cancer and anti-proliferative activities” (Deciphera Pharmaceuticals, LLC, priority 2013, dated 2015).
# How the values were obtained:
# [1] = target: unphosphorylated PDGFRβ kinase (uPDGFRβ, Seq. ID No. 3) (Homo sapiens (Human), UniProt P09619); assay: Unphosphorylated PDGFRβ kinase assay (coupled pyruvate kinase/lactate dehydrogenase); type: biochemical; settings: enzymatic assay, ATP 500 μM
# Method in brief: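 Construct residues 557-1106, unphosphorylated, 15.7 nM, with poly E4Y 2.5 mg/mL and 500 μM ATP, Tris pH 7.5, 1% DMSO, 30 °C. ADP coupled to NADH oxidation via PK/LDH, A340 followed 4 h; rate from 1.5-2.5 h versus no-compound control, IC50 from percent-inhibition series.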
# c-FMS = assay: cFOS mRNA production in a c-FMS mouse spleen pharmacodynamic model; type: in vivo; settings: out to 8 h post 30 mg/kg dose, single oral dose
# Method: Analysis of cFOS mRNA Production in a c-FMS Mouse Spleen Pharmacodynamic Model
# To examine the in vivo modulation of FMS activity by compounds of formula I, spleen samples from female DBA/1 mice were collected and analyzed for M-CSF stimulated production of cFOS mRNA. Briefly, six to seven week old female Taconic DBA/1BO J Bom Tac mice were treated with a single oral dose (by gavage) of either vehicle or compound. Plasma and spleen samples were collected from four mice at each timepoint 2, 4, 6, 8, 12, 18, and 24 hours after dosing. Fifteen minutes prior to euthanasia, all mice were injected IV with 1 μg (100 μL fixed volume) of M-CSF. M-CSF, Recombinant Mouse Macrophage Colony Stimulating Factor (36.4 kDa homodimer, ≧98% purity) was obtained from Gibco. All procedures carried out in this experiment were conducted in compliance with all the laws, regulations and guidelines of the National Institutes of Health (NIH). cFOS mRNA levels in spleen extracts were determined using a quantitative reverse transcriptase PCR kit from Life Technologies. Plasma levels of FMS inhibitors were determined by mass spectrometer analysis. The degree of FMS inhibition was correlative to the amount of decrease observed in cFOS mRNA levels in the spleen samples of treated animals compared to vehicle.
# cMET kinase = cMET kinase (Homo sapiens (Human), UniProt P08581); assay: cMET kinase inhibition (Table 4); type: biochemical
# cMET kinase, sequence (P08581 25-1390): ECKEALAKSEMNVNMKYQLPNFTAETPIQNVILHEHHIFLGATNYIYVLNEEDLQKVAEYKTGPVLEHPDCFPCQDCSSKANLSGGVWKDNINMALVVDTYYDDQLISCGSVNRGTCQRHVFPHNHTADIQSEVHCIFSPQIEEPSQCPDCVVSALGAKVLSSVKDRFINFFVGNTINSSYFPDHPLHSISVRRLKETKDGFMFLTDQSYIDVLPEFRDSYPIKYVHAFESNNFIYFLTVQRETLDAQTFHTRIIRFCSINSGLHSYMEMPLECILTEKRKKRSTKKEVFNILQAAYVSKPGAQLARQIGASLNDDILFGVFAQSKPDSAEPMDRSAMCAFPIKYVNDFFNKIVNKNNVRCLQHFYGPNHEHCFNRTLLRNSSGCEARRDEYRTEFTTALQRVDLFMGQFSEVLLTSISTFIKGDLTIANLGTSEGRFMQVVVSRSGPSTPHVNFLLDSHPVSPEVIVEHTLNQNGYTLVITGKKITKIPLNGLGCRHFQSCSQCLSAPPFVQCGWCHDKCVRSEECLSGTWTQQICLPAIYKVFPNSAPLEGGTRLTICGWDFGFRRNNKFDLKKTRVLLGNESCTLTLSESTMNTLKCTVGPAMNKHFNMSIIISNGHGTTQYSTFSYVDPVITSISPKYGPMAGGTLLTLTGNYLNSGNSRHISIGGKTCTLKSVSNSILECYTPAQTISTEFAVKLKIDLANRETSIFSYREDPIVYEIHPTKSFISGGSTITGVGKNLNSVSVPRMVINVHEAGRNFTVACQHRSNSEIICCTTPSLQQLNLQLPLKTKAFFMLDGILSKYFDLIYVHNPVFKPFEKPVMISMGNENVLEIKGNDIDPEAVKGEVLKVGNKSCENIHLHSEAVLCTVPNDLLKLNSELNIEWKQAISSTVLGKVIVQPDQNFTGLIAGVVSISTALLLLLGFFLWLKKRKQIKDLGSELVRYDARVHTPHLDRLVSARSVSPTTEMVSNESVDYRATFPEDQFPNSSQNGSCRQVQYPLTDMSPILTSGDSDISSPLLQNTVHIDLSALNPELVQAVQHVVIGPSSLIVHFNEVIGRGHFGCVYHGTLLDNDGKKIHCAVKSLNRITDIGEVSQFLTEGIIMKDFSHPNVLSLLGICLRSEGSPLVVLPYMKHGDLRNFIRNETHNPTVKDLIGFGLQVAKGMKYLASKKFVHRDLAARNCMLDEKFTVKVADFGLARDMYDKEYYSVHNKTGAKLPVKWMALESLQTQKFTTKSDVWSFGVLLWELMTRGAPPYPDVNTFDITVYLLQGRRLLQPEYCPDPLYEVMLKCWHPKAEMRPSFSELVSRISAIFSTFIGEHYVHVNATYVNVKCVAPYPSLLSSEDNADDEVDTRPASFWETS
# KDR kinase = KDR kinase (Homo sapiens (Human), UniProt P35968); assay: KDR kinase inhibition (Table 4); type: biochemical
# KDR kinase, sequence (P35968 20-1356): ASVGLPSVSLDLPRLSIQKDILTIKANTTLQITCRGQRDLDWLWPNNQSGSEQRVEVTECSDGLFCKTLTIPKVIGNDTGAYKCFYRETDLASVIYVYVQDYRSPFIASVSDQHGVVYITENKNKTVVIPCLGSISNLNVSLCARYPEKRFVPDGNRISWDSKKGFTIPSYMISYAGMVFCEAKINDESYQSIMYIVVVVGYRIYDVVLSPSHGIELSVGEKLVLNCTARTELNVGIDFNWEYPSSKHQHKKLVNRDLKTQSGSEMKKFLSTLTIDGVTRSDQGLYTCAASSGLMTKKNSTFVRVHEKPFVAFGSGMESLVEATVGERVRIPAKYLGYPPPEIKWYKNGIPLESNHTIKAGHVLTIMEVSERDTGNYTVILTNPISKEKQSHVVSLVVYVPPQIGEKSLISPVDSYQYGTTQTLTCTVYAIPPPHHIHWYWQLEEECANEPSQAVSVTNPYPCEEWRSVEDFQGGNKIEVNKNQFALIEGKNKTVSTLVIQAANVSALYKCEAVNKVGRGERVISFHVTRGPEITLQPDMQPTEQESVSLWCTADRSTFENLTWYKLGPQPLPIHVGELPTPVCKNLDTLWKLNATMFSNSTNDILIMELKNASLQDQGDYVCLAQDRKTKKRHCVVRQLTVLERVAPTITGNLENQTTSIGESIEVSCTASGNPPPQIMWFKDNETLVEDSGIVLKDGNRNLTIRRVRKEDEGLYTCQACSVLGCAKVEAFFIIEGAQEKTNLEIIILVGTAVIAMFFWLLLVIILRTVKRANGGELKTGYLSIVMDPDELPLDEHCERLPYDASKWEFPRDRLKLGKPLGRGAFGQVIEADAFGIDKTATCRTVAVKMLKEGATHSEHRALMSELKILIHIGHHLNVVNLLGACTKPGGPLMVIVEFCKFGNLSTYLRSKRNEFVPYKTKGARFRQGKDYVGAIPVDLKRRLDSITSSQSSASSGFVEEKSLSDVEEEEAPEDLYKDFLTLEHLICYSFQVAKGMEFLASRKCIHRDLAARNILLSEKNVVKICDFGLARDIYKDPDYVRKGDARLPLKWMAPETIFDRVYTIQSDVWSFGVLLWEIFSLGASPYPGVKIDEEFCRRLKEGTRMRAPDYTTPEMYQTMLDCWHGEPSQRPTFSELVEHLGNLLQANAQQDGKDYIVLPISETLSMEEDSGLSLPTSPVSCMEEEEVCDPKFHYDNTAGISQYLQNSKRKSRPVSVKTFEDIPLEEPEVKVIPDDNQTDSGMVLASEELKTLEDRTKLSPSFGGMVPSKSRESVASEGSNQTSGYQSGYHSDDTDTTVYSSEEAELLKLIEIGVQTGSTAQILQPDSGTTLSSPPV
# [2] = tested on: MDA-MB-231-luc-D3H2LN human breast carcinoma xenograft; assay: MDA-MB-231 xenograft study; type: in vivo, mouse; settings: orally dosed at 30 mg/kg twice daily
# Method: MDA-MB-231 Xenograft Study
# To evaluate the in vivo anti-cancer activity compounds of formula I, a MDA-MB-231-luc-D3H2LN human breast carcinoma xenograft was employed. Briefly, MDA-MB-231-luc-D3H2LN cells were obtained from Xenogen and expanded in Minimal Essential Media (MEM) with EBSS which was modified with 1% L-glutamine and supplemented with 10% FBS, 1% PSG, 1% non-essential amino acids, and 1% sodium pyruvate. The growth environment was maintained in an incubator with a 5% CO2 atmosphere at 37° C. Cells were harvested and re-suspended using 50% serum-free media and 50% Matrigel® to generate a stock concentration of 5×10^6 cells/mL.
# Six to 7 week old female C.B-17/IcrHsd-PrkdcscidLystbg mice were injected with 200 μL of cell suspension subcutaneously, just below the right axilla. All procedures carried out in this experiment were conducted in compliance with all the laws, regulations and guidelines of the National Institutes of Health (NIH). Treatment began when the mean tumor burden was approximately 150 mg. All mice were dosed with test compound by oral gavage. Body weights and tumor measurements were recorded three times weekly. […] Images were analyzed using Living Image (Xenogen, Alameda, Calif.) software. […]
# unphosphorylated PDGFRβ kinase (uPDGFRβ, Seq. ID No. 3), sequence (P09619 557-1106): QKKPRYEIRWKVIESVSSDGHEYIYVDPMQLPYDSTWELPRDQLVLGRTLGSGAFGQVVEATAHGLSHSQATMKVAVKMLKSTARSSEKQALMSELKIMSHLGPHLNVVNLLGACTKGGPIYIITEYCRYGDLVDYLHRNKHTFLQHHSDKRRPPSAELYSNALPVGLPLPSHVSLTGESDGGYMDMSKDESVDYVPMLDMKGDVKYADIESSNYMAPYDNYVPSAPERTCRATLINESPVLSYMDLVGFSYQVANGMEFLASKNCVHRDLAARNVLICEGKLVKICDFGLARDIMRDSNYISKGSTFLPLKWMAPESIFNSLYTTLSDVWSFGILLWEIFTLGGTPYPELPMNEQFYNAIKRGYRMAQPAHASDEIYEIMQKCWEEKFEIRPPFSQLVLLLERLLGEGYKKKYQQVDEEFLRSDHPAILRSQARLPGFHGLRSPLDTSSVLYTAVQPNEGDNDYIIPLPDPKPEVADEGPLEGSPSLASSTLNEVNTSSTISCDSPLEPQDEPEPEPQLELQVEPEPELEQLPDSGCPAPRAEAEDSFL
SMILES,IC50 [1] [nM],inhibition of cFOS mRNA levels (c-FMS) [%],IC50 (cMET kinase) [nM],IC50 (KDR kinase) [nM],tumor growth inhibition [2] [%]
"CCN1CCN(C(=O)Nc2ccc(Oc3ccnc(-c4cnn(C)c4)c3)c(C)n2)C1=O [Example 42, 3-ethyl-N-(6-methyl-5-((2-(1-methyl-1H-pyrazol-4-yl)pyridin-4-yl)oxy)pyridin-2-yl)-2-oxoimidazolidine-1-carboxamide]",> 1000,≥ 70,> 5000,> 10000,–
"Cc1nc(NC(=O)N2CCN(C)C2=O)ccc1Oc1ccnc(-c2cnn(C)c2)c1 [Example 41, 3-methyl-N-(6-methyl-5-((2-(1-methyl-1H-pyrazol-4-yl)pyridin-4-yl)oxy)pyridin-2-yl)-2-oxoimidazolidine-1-carboxamide]",> 1000,≥ 70,–,–,–
"CCN1CCN(C(=O)Nc2ccc(Oc3ccnc(-c4ccnc(C)c4)c3)c(C)n2)C1=O [Example 118, 3-ethyl-N-(6-methyl-5-((2′-methyl-[2,4′-bipyridin]-4-yl)oxy)pyridin-2-yl)-2-oxoimidazolidine-1-carboxamide]",> 1000,≥ 70,–,–,–
"Cn1cc(-c2cc(Oc3ccc(NC(=O)N4CCN(C5CCOC5)C4=O)nc3)ccn2)cn1 (stereo in doubt) [Example 12, (S)—N-(5-((2-(1-methyl-1H-pyrazol-4-yl)pyridin-4-yl)oxy)pyridin-2-yl)-2-oxo-3-(tetrahydrofuran-3-yl)imidazolidine-1-carboxamide]",> 1000,–,–,–,–
"Cc1cc(-c2cc(Oc3ccc(NC(=O)N4CCN(C5CCOCC5)C4=O)nc3)ccn2)on1 [Example 7, N-(5-((2-(3-methylisoxazol-5-yl)pyridin-4-yl)oxy)pyridin-2-yl)-2-oxo-3-(tetrahydro-2H-pyran-4-yl)imidazolidine-1-carboxamide]",> 1000,–,–,–,–
"CC(=O)Nc1cc(Oc2ccc(NC(=O)N3CCN(C4CCOCC4)C3=O)nc2)ccn1 [Example 119, N-(5-((2-acetamidopyridin-4-yl)oxy)pyridin-2-yl)-2-oxo-3-(tetrahydro-2H-pyran-4-yl)imidazolidine-1-carboxamide]",100 to 1000,–,–,–,–
"Cc1cc(NC(=O)N2CCN(C)C2=O)ncc1Oc1ccnc(-c2cnn(C)c2)c1 [Example 85, 3-methyl-N-(4-methyl-5-((2-(1-methyl-1H-pyrazol-4-yl)pyridin-4-yl)oxy)pyridin-2-yl)-2-oxoimidazolidine-1-carboxamide]",> 1000,–,–,–,–
"CCc1nc(NC(=O)N2CCN(C3CCOCC3)C2=O)ccc1Oc1ccnc(-c2cnn(C)c2)c1 [Example 49, N-(6-ethyl-5-((2-(1-methyl-1H-pyrazol-4-yl)pyridin-4-yl)oxy)pyridin-2-yl)-2-oxo-3-(tetrahydro-2H-pyran-4-yl)imidazolidine-1-carboxamide]",> 1000,–,–,–,–
"Cc1nc(NC(=O)N2CCN(C(C)C)C2=O)ccc1Oc1ccnc(-c2cnn(C)c2)c1 [Example 35, 3-isopropyl-N-(6-methyl-5-((2-(1-methyl-1H-pyrazol-4-yl)pyridin-4-yl)oxy)pyridin-2-yl)-2-oxoimidazolidine-1-carboxamide]",100 to 1000,–,–,–,–
"COCCN1CCN(C(=O)Nc2ccc(Oc3ccnc(-c4cnn(C)c4)c3)cn2)C1=O [Example 10, 3-(2-methoxyethyl)-N-(5-((2-(1-methyl-11H-pyrazol-4-yl)pyridin-4-yl)oxy)pyridin-2-yl)-2-oxoimidazolidine-1-carboxamide]",> 1000,–,–,–,–
"COCCN1CCN(C(=O)Nc2ccc(Oc3ccnc(-c4cnn(C)c4)c3)c(C)n2)C1=O [Example 18, 3-(2-methoxyethyl)-N-(6-methyl-5-((2-(1-methyl-1H-pyrazol-4-yl)pyridin-4-yl)oxy)pyridin-2-yl)-2-oxoimidazolidine-1-carboxamide]",> 1000,≥ 70,> 5000,> 3300,51
"CCN1CCN(C(=O)Nc2cc(C)c(Oc3ccnc(-n4cnc(C)c4)c3)cn2)C1=O [Example 88, 3-ethyl-N-(4-methyl-5-((2-(4-methyl-1H-imidazol-1-yl)pyridin-4-yl)oxy)pyridin-2-yl)-2-oxoimidazolidine-1-carboxamide]",> 1000,–,–,–,–
"CCN1CCN(C(=O)Nc2ccc(Oc3ccnc(-c4cnc(C)o4)c3)cn2)C1=O [Example 117, 3-ethyl-N-(5-((2-(2-methyloxazol-5-yl)pyridin-4-yl)oxy)pyridin-2-yl)-2-oxoimidazolidine-1-carboxamide]",> 1000,–,–,–,–
"Cn1cc(-c2cc(Oc3ccc(NC(=O)N4CCN(C5CCOCC5)C4=O)nc3)ccn2)cn1 [Example 1, N-(5-((2-(1-methyl-1H-pyrazol-4-yl)pyridin-4-yl)oxy)pyridin-2-yl)-2-oxo-3-(tetrahydro-2H-pyran-4-yl)imidazolidine-1-carboxamide]",100 to 1000,–,> 5000,> 3300,–
"Cc1nc(NC(=O)N2CCN(C3CCCC3)C2=O)ccc1Oc1ccnc(-c2cnn(C)c2)c1 [Example 29, 3-cyclopentyl-N-(6-methyl-5-((2-(1-methyl-1H-pyrazol-4-yl)pyridin-4-yl)oxy)pyridin-2-yl)-2-oxoimidazolidine-1-carboxamide]",> 1000,–,898,> 3300,–
